pIC50: −log10 of the molar value.
Experiments:
Assay type in all cases: functional, cell-based
KNS-62 = test: cells; details: Homo sapiens;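 also: inhibition of cell growth, read out with a cell viability assay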
Description: SANGER: Inhibition of human KNS-62 cell growth in a cell viability assay.

TGBC11TKB = test: cells; details: Homo sapiens;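 also: growth inhibition of human TGBC11TKB cells, measured by a cell viability assay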
Description: SANGER: Inhibition of human TGBC11TKB cell growth in a cell viability assay.

A549 = test: cells; details: Homo sapiens;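 also: growth inhibition of A549 cells, read out with a cell viability assay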
Description: SANGER: Inhibition of human A549 cell growth in a cell viability assay.

NCI-H1975 = test: cells; details: Homo sapiens
Description: SANGER: Inhibition of human NCI-H1975 cell growth in a cell viability assay.

ZR-75-30 = test: cells; details: Homo sapiens;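 also: growth inhibition of ZR-75-30 cells, measured with a cell viability readout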
Description: SANGER: Inhibition of human ZR-75-30 cell growth in a cell viability assay.

NCI-H1666 = test: cells; details: Homo sapiens;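 also: growth inhibition of the cell line, read out with a cell viability assay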
Description: SANGER: Inhibition of human NCI-H1666 cell growth in a cell viability assay.

EPLC-272H = test: cells; details: Homo sapiens
Description: SANGER: Inhibition of human EPLC-272H cell growth in a cell viability assay.

NCI-H1048 = test: cells; details: Homo sapiens;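 also: growth inhibition of human NCI-H1048 cells, read out with a cell viability assay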
Description: SANGER: Inhibition of human NCI-H1048 cell growth in a cell viability assay.

YH-13 = test: cells; details: Homo sapiens;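 also: cell viability readout of growth suppression in the human YH-13 cell line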
Description: SANGER: Inhibition of human YH-13 cell growth in a cell viability assay.

LU-135 = test: cells; details: Homo sapiens
Description: SANGER: Inhibition of human LU-135 cell growth in a cell viability assay.

BT-549 = test: cells; details: Homo sapiens
Description: SANGER: Inhibition of human BT-549 cell growth in a cell viability assay.

CFPAC-1 = test: cells; details: Homo sapiens;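 also: cell viability readout used to gauge suppression of CFPAC-1 cell proliferation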
Description: SANGER: Inhibition of human CFPAC-1 cell growth in a cell viability assay.

SW 1116 = test: cells; details: Homo sapiens;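 also: growth inhibition of SW1116 cells, read out with a cell viability assay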
Description: SANGER: Inhibition of human SW1116 cell growth in a cell viability assay.

NBsusSR = test: cells; details: Homo sapiens;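 also: growth inhibition of the human cell line, read out with a cell viability assay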
Description: SANGER: Inhibition of human NBsusSR cell growth in a cell viability assay.

RH-18 = test: cells; details: Homo sapiens, Rh18;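 also: growth inhibition of human RH-18 cells, read out with a cell viability assay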
Description: SANGER: Inhibition of human RH-18 cell growth in a cell viability assay.

TI-73 = test: cells; details: Homo sapiens;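 also: cell viability assay measuring how much compounds suppress growth of the cultured cell line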
Description: SANGER: Inhibition of human TI-73 cell growth in a cell viability assay.

SW900 = test: cells; details: Homo sapiens;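 also: IC50 is the concentration that inhibits SW900 cell growth, measured by a cell viability assay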
Description: SANGER: Inhibition of human SW900 cell growth in a cell viability assay.

ECC12 = test: cells; details: Homo sapiens
Description: SANGER: Inhibition of human ECC12 cell growth in a cell viability assay.

MFE-296 = test: SANGER: Inhibition of human MFE-296 cell growth in a cell viability assay.
HCC1143 = test: cells; details: Homo sapiens;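 also: growth inhibition of human HCC1143 cells, read out with a cell viability assay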
Description: SANGER: Inhibition of human HCC1143 cell growth in a cell viability assay.

MES-SA = test: cells; details: Homo sapiens;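 also: growth inhibition of human MES-SA cells, read out with a cell viability assay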
Description: SANGER: Inhibition of human MES-SA cell growth in a cell viability assay.

Caov-4 = test: cells; details: Homo sapiens
Description: SANGER: Inhibition of human Caov-4 cell growth in a cell viability assay.

MDA-MB-468 = test: cells; details: Homo sapiens
Description: SANGER: Inhibition of human MDA-MB-468 cell growth in a cell viability assay.

NCI-H838 = test: cells; details: Homo sapiens;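 also: growth inhibition of human NCI-H838 cells, read out by a cell viability assay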
Description: SANGER: Inhibition of human NCI-H838 cell growth in a cell viability assay.

SNG-M = test: cells; details: Homo sapiens
Description: SANGER: Inhibition of human SNG-M cell growth in a cell viability assay.

IPC-298 = test: SANGER: Inhibition of human IPC-298 cell growth in a cell viability assay.
C-4-II = test: SANGER: Inhibition of human C-4-II cell growth in a cell viability assay.
COLO 205 = test: cells; details: Homo sapiens
Description: SANGER: Inhibition of human COLO-205 cell growth in a cell viability assay.

Calu-1 = test: SANGER: Inhibition of human Calu-1 cell growth in a cell viability assay.
CCF-STTG1 = test: cells; details: Homo sapiens;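 also: growth inhibition of human CCF-STTG1 cells, determined with a cell viability read-out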
Description: SANGER: Inhibition of human CCF-STTG1 cell growth in a cell viability assay.

EW-7 = test: SANGER: Inhibition of human EW-7 cell growth in a cell viability assay.
NCI-H2227 = test: cells; details: Homo sapiens;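 also: growth inhibition of the human cell line, read out with a cell viability assay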
Description: SANGER: Inhibition of human NCI-H2227 cell growth in a cell viability assay.

SK-CO-1 = test: cells; details: Homo sapiens;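 also: growth inhibition of SK-CO-1 cells, determined by a viability readout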
Description: SANGER: Inhibition of human SK-CO-1 cell growth in a cell viability assay.

Caov-3 cell line = test: cells; details: Homo sapiens;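 also: cell growth inhibition read out by a viability assay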
Description: SANGER: Inhibition of human Caov-3 cell growth in a cell viability assay.

TT = test: cells; details: Homo sapiens
Description: SANGER: Inhibition of human TT cell growth in a cell viability assay.

EFE-184 = test: cells; details: Homo sapiens
Description: SANGER: Inhibition of human EFE-184 cell growth in a cell viability assay.

RL95-2 = test: cells; details: Homo sapiens;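 also: RL95-2 growth inhibition determined through a cell viability readout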
Description: SANGER: Inhibition of human RL95-2 cell growth in a cell viability assay.

DMS-53 = test: cells; details: Homo sapiens;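 also: cell viability assay measuring growth inhibition of human DMS-53 cells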
Description: SANGER: Inhibition of human DMS-53 cell growth in a cell viability assay.

RT-4 = test: SANGER: Inhibition of human RT4 cell growth in a cell viability assay.
NCI-H1734 = test: cells; details: Homo sapiens;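 also: growth inhibition of human NCI-H1734 cells, read out with a cell viability assay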
Description: SANGER: Inhibition of human NCI-H1734 cell growth in a cell viability assay.

PLC-PRF-5 = test: cells; details: Homo sapiens;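 also: growth inhibition of human PLC-PRF-5 cells, read out with a viability assay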
Description: SANGER: Inhibition of human PLC-PRF-5 cell growth in a cell viability assay.

SNU-475 = test: cells; details: Homo sapiens
Description: SANGER: Inhibition of human SNU-475 cell growth in a cell viability assay.

ECC10 = test: cells; details: Homo sapiens;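 also: growth inhibition of ECC10 cells, read out by a cell viability assay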
Description: SANGER: Inhibition of human ECC10 cell growth in a cell viability assay.

NCI-H2029 = test: cells; details: Homo sapiens;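 also: Read-out is a viability assay on the cultured cells, and IC50 is the concentration that suppresses cell growth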
Description: SANGER: Inhibition of human NCI-H2029 cell growth in a cell viability assay.

H-EMC-SS = test: cells; details: Homo sapiens
Description: SANGER: Inhibition of human H-EMC-SS cell growth in a cell viability assay.

CHP-134 = test: SANGER: Inhibition of human CHP-134 cell growth in a cell viability assay.
OC-314 = test: cells; details: Homo sapiens
Description: SANGER: Inhibition of human OC-314 cell growth in a cell viability assay.

NC(=O)c1ncn([C@@H]2O[C@H](COP(=O)(O)O)[C@@H](O)[C@H]2O)c1N
pIC50 (KNS-62): 3.00 | pIC50 (TGBC11TKB): < 2.70 | pIC50 (A549): < 2.70 | pIC50 (NCI-H1975): 2.97 | pIC50 (ZR-75-30): < 2.70 | pIC50 (NCI-H1666): < 2.70 | pIC50 (EPLC-272H): 3.24 | pIC50 (NCI-H1048): < 2.70 | pIC50 (YH-13): < 2.70 | pIC50 (LU-135): < 2.70 | pIC50 (BT-549): 3.09 | pIC50 (CFPAC-1): 2.95 | pIC50 (SW 1116): < 2.70 | pIC50 (NBsusSR): 3.32 | pIC50 (RH-18): < 2.70 | pIC50 (TI-73): 3.14 | pIC50 (SW900): < 2.70

Fc1cc(-c2cc[nH]/c(=N/c3ccc(-n4cnc(N5CCOCC5)n4)cc3)n2)cc(N2CCOCC2)c1
pIC50 (ECC12): 6.49 | pIC50 (MFE-296): 6.76 | pIC50 (HCC1143): 6.02 | pIC50 (MES-SA): 6.14 | pIC50 (Caov-4): < 5.29 | pIC50 (MDA-MB-468): 6.02 | pIC50 (NCI-H838): 6.38 | pIC50 (SNG-M): 6.19 | pIC50 (IPC-298): 6.07 | pIC50 (C-4-II): 6.39 | pIC50 (COLO 205): 6.82 | pIC50 (Calu-1): 5.51 | pIC50 (CCF-STTG1): 6.20 | pIC50 (EW-7): 6.25 | pIC50 (NCI-H2227): < 5.29 | pIC50 (SK-CO-1): 6.04 | pIC50 (Caov-3 cell line): < 5.29 | pIC50 (TT): 5.45 | pIC50 (EFE-184): 5.52 | pIC50 (RL95-2): 6.18 | pIC50 (DMS-53): 5.97 | pIC50 (RT-4): 5.45 | pIC50 (NCI-H1734): 6.23 | pIC50 (PLC-PRF-5): 5.40 | pIC50 (SNU-475): < 5.29

Cn1c(=O)n(-c2ccc(C(C)(C)C#N)cc2)c2c3cc(-c4cnc5ccccc5c4)ccc3ncc21 [DACTOLISIB]
pIC50 (KNS-62): 7.34 | pIC50 (TGBC11TKB): 6.39 | pIC50 (A549): 7.99 | pIC50 (ECC10): 7.50 | pIC50 (NCI-H2029): 5.85 | pIC50 (ZR-75-30): < 5.70 | pIC50 (NCI-H1666): 8.01 | pIC50 (EPLC-272H): 7.35 | pIC50 (NCI-H1048): 7.06 | pIC50 (YH-13): 7.66 | pIC50 (H-EMC-SS): 6.83 | pIC50 (LU-135): < 5.70 | pIC50 (BT-549): 6.92 | pIC50 (CFPAC-1): 6.82 | pIC50 (SW 1116): < 5.70 | pIC50 (NBsusSR): 7.61 | pIC50 (RH-18): 6.40 | pIC50 (TI-73): 7.60 | pIC50 (CHP-134): 6.86 | pIC50 (OC-314): 7.41 | pIC50 (SW900): 6.81
